Experimental data as given in patent publication US6723723B1, “Heterocyclic derivatives as inhibitors of factor Xa” (AstraZeneca, priority 1999, dated 2004).
Counter-ions that a name gives are not always drawn.

**Q.** For O=C(c1ccc(-c2ccncc2)nc1)N1CCN(S(=O)(=O)c2cc3cc(Cl)ccc3[nH]2)CC1 (as salt: hydrochloride) [Example 1, 1-(5-Chloroindol-2-ylsulphonyl)-4-[6-(4-pyridyl)nicotinoyl]piperazine], which melting point is on record?
**A.** 186 to 190 °C
